Experimental data reported in patent US8653026B2, “Treatment of type 2 diabetes with FTY720” (Diapin Therapeutics LLC, priority 2011, dated 2014).

How the values were obtained:
db/db mice = assay: Fasting serum insulin levels (ELISA) in db/db mice; assay type: in vivo, mouse; settings: FTY720-treated vs untreated, after overnight fasting
Text: FIG. 4. Fasting serum insulin levels of the db/db mice with (+FTY720) or without FTY720 (−FTY720) treatment (*p<0.01).
After overnight fasting, blood samples ([…]) were collected in a heparinized microhematocrit tube for the determination of insulin concentration using a Ultra Sensitive Mouse Insulin ELISA Kit (Crystal Chem Inc., Downers Grove, Ill.) (30).

[1] = system: isolated pancreatic islets; assay: Glucose-stimulated insulin secretion by isolated normal islets ex vivo; assay type: cell-based, mouse; settings: islets from 8 weeks old normal C57/BL6 mice, 0.2 μM FTY720, 24 hours
Description: Islets were isolated from 8 weeks old normal C57/BL6 mice and treated with or without 0.2 μM FTY720 in the culture medium without FBA for 24 hours. Then the islets were stimulated with glucose and secreted insulin was measured using an Ultra Sensitive Mouse Insulin ELISA Kit (Crystal Chem Inc., Downers Grove, Ill.) and total proteins of islets were measured.

pancreatic islets = assay: Islet morphology (HE and insulin immunostaining) and islet area quantification in pancreas; assay type: in vivo, mouse
Text: FIG. 7. Hematoxylin and eosin (HE) staining of pancreas from the FTY720-untreated and the treated mice. After 6 and 9 weeks of treatment, pancreases were removed from the db/db mice and embedded in paraffin. Paraffin sections (10 μm thick) were stained with HE and analyzed with a microscope (Scale bar, 50 μm).
FIG. 8. Insulin immunostaining (green fluorescence) of the pancreatic islets. After 6 and 9 weeks treatment of FTY720, pancreases were removed from the db/db mice and embedded in paraffin. Paraffin sections (10 μm thick) were immunostained fluorescently for insulin (green color) (Scale bar 50 μm).
FIG. 9. Stereological quantification of the islet areas in the FTY720-untreated and the FTY720-treated db/db mice. […]
To assess islet area in pancreas after 6 weeks of treatment with FTY720, six consecutive paraffin sections (10 μm) from a pancreas (10 pancreases for the control and 9 pancreases for the FTY720-treated group) were used. All islet images on a whole section were taken by a Axioplan 2 microscope at X10 magnification, each islet area was measured by the Java-based image-processing program ImageJ (National Institutes of Health, Bethesda, Md.), and the sum of all islet areas from a section was considered to be the islet area per pancreas.

PDX-1 = PDX-1 expression in isolated islets from db/db mice; assay type: in vivo, mouse; settings: islets from FTY720-treated db/db mice
Description: FIG. 14. PDX-1 expression in the isolated islets from the db/db mice with (+FTY720) or without FTY720 (−FTY720) treatment (*p=0.0006).
Islets were isolated from pancreases removed from the 13-week-old untreated and FTY720-treated db/db mice by Liberase (Roche Diagnostics) digestion, followed by discontinuous Ficoll gradient separation and manual stereomicroscopic selection to exclude contaminating tissues (30). Isolated islets (or INS-1 cells) were cultured in the medium (composed of RPMI 1640 medium supplemented with 10% fetal bovine serum, 2 mM L-glutamine, 1% sodium pyruvate, 50 μM β-mercaptoethanol, 100 units/ml of penicillin, and 100 μg/ml of streptomycin). For treatment of INS-1 cells, the cells were plated in RPMI medium overnight and changed to Hanks' balanced salt solution containing 2 mM glucose and 0.5% FBS overnight. Then the cells were treated with various conditions in the same medium for 24 hours.
Expression of pancreatic and duodenal homeobox 1 (PDX-1), a transcription factor, is required for pancreatic development and β-cell maturation.

S1P3 = assay: S1P receptor expression in islets from db/db mice: S1P3; assay type: in vivo, mouse; settings: after FTY720 treatment of db/db mice
Text: (§1) FIG. 15. Expression of 4 FTY720-bound S1P receptors in the islets isolated from the db/db mice.
(§2) FTY720 is phosphorylated in vivo to form FTY720-P that binds S1P1, S1P3, S1P4, and S1P5 but not S1P2 (25). We determined the expression of these receptors in the islets isolated from the untreated and FTY720-treated db/db mice.

S1P4 = assay: S1P receptor expression in islets from db/db mice: S1P4; assay type: in vivo, mouse; settings: after FTY720 treatment of db/db mice
Text: as §1, §2

[2] = Observation of cancer formation during the study; assay type: in vivo, mouse; settings: during the course of this invention, 10 mg/kg
Text: There are several advantages of the present invention. First, FTY720 is a FDA approved medicine for the treatment of patients with relapsing multiple sclerosis (MS) and its safety profile has been well studied during the clinical trial for treatment of relapsing MS, including more than 4,500 patient years of experience, with some patients in their seventh year of treatment. Second, FTY720 is an orally taken therapy and easy to take by patients, compared with insulin and GLP-1 analog therapies that have to be injected into body either by healthcare professionals or by patients themselves. […] Finally, although FTY720 promotes beta-cell regeneration, the risk of tumorigenesis is low.

pancreatic cancer cells = settings: concentrations identical to this study (10 mg/kg), reportedly; cited from earlier work

Q: With CCCCCCCCc1ccc(CCC(N)(CO)CO)cc1 [FTY720, 2-amino-2-[2-(4-octylphenyl)ethyl]propane-1,3-diol] as the molecule, how does the “fasting serum insulin levels” value (db/db mice) read?
A: significantly elevated

Q: And the glucose-stimulated insulin secretion [1]?
A: does not affect

Q: What about the “pancreatic islet size (stereological quantification of islet areas)” value (pancreatic islets; db/db mice after 6 weeks of treatment, vs untreated group) of the same molecule?
A: significantly larger

Q: What about the islet morphology (pancreatic islets; db/db mice, H&E and insulin immunostaining, after 6 and 9 weeks of treatment) of the same molecule?
A: normal islet morphology

Q: And the “PDX-1 expression relative to islets from untreated mice” value (PDX-1)?
A: 6 fold

Q: What about the “S1P3 expression in islets” value (S1P3) of the same molecule?
A: significantly elevated

Q: And the “S1P4 expression in islets” value (S1P4)?
A: significantly elevated

Q: And the cancer formation [2]?
A: no cancer formation was observed

Q: And the “growth, migration, and invasion of pancreatic cancer cells” value (pancreatic cancer cells)?
A: inhibit
